Values quoted from earlier work as cited in patent US8163169B2, “Hydroconversion processes employing multi-metallic catalysts and method for making thereof” (Chevron U.S.A. Inc., priority 2007, dated 2012).

Tested on: rats
Conditions: single oral dose to rats

O=CC(=O)O [glyoxylic]
LD50: 3000 mg/kg
